Measurements published in patent publication US20260184704A1, “NLRP3 INFLAMMASOME INHIBITORS AND USES THEREOF” (Insilico Medicine IP Limited, priority 2023, published 2026).

Columns and labels:
[1] = system: THP-1 cells, IL-1β release; test: IL-1β Release THP-1 Assay (Example B-3); assay type: cell-based; conditions: Homo sapiens; PMA-differentiated THP-1 cells, LPS then Nigericin, IL-1β by Elisa; read-out: Potency, THP-1 IL-1β, IC50 (nM), Example B-3
Procedure: Example B-3: IL-1β Release THP-1 Assay
THP-1 cells Culture RPMI1640 medium, 10% FBS, 1% PS, 55 uM β-Mer at 37° C. & 5% CO2 incubator.
IL-1β Release Detection • 1) Seed THP-1 in complete RPMI 1640 medium containing PMA into 96 well plate coated with poly-L-lysin incubate for 24 hours. • 2) Remove medium, wash the differentiated THP-1 cells with PBS, add FBS free RPMI 1640 medium. • 3) Add LPS and incubate for 3 hours at 37° C. & 5% CO2 incubator. • 4) Add compounds and incubate for 30 minutes at 37° C. & 5% CO2 incubator. • 5) Add Nigericin and incubate for 1 hour at 37° C. & 5% CO2 incubator. • 6) Collect supernatant to test IL-1β by Elisa.
• a) Assay robustness check with DMSO and Low control data:
[formula] • X: cpd concentration • Y: change % • Top and Bottom: Plateaus in same units as Y • logIC50: same log units as X • HillSlope: Slope factor or Hill slope

[2] = molecular target: T1, hERG (Homo sapiens, UniProt Q12809); test: hERG Screening Assay Using Electrophysiological Manual Patch-Clamp (Example B-5); assay type: cell-based; conditions: hERG-CHO cells, whole-cell manual patch clamp, room temperature; read-out: hERG inhibition_IC50 (μM), Example B-5
T1 construct: expressed in transfected cells
Procedure: Example B-5: hERG Screening Assay Using Electrophysiological Manual Patch-Clamp
Cell lines: hERG-CHO cells
Method: CHO cells stably expressing the transcript of hERG were investigated by whole-cell manual patch clamp technique. hERG-CHO cells were cultured in 35 mm dishes to a maximum 70-80% confluence at 37° C. 5% CO2 incubator. The culture media (F12 medium (Invitrogen 11765062, ThermoFisher, USA) supplemented with 10% fetal bovine serum (Invitrogen 10099141, ThermoFisher, USA), 100 μg/mL G418 (Invitrogen 11811023, ThermoFisher, USA) and 100 μg/mL Hygromycin B (Invitrogen 10687010, ThermoFisher, USA)) was removed and the hERG-CHO cells were washed with extracellular solution (in mM): 140 NaCl, 5 KCl, 1 CaCl2), 1.25 MgCl2, 10 HEPES and 10 Glucose, pH 7.4 with NaOH. Then the cells were dissociated with 0.25% Trypsin-EDTA for 3-5 min, after that, the digestion solution was removed and the cells were resuspended in the extracellular solution with pipette by pipetting up and down several times. Resuspended cells were transferred to dishes for recording and cells were perfused with extracellular solution. Electrodes (a tip resistance of 3-5 MegOhm) were pulled from borosilicate grass pipette (Sutter instrument BF150-86-10) and filled with intracellular solution (in mM): 140 KCl, 1 MgCl2, 1 CaCl2), 10 EGTA and 10 HEPES, pH 7.2 with KOH. Data were obtained using a patch-clamp amplifier, signals were filtered at 2 kHz and sampled at frequencies of 10 kHz using pClamp 10 software. The cells were held at −100 mV and hERG potassium currents were activated by a 2 s depolarization potential of +20 mV followed by a repolarization potential of −50 mV for Is then back to the holding potential. Experiments were performed at room temperature.
Data analysis: Data were retrieved and analyzed using pClamp 10, GraphPad Prism 8 and Excel software. The peak amplitude of hERG currents were measured using clampfit and exported to Excel and GraphPad Prism 8 for subsequent analysis.
where Y is the inhibition % corresponding to X, [X] is the Log value of concentration of compound in the external solution and HillSlope is the Hill coefficient. The ratio of inhibition was calculated by using the equation: Inhibition=(1−I/Io)*100%, where Io and I are the current amplitude measured in control and in the presence of compounds, respectively. n is not less than 2 cells for each concentration.
Results: Compounds IC50 on hERG and concentration-response curves

[3] = molecular target: T2, NLRP3 (Homo sapiens, UniProt Q96P20); test: NLRP3 Enzymatic Activity ADP-Glo Assay (Example B-4); assay type: biochemical; conditions: hydrolysis of ATP by NLRP3; NLRP3 15 nM, ATP 1 μM; read-out: NLRP3_ADP-Glo_IC50 (nM), Example B-4
T2 construct: purchased ICE YM2306T-H06MHS
Procedure: Example B-4: NLRP3 Enzymatic Activity ADP-Glo Assay
NLRP3 activity test experiment, measuring the hydrolysis of NLRP3 on the substrate ATP using the ADP-Glo assay. First, after adding an inhibitor containing 0.5% DMSO with Echo, add 5 μL of NLRP3 (ICE, YM2306T-H06MHS) enzyme solution to each well, centrifuge at 1000 rpm for 1 min at room temperature and react for 10 min. Then add 5 μL of ATP (Promega, V915A) substrate solution to each well for 90 min at room temperature; NLRP3 and ATP were prepared in 50 mM HEPES, 10 mM MgCl2, 0.01% Brij-35, 1 mM EGTA, and 2 mM DTT buffers at final concentrations of 15 nM and 1 μM, respectively. Subsequently, 10 μL ADP-Glo reagent solution (Promega, V9102) was added into each assay well, centrifuged at 1000 rpm for 1 min, and then incubated at room temperature for 45 min. Finally, 20 μL ADP-Glo detection solution (Promega, V9102) is added to each well, centrifuged at 1000 rpm for 1 min and reacted for 45 min at room temperature. The luminescence signal values were read using a BMG instrument and the IC50 values were determined by fitting the data to an S-shaped dose-response curve using nonlinear regression.

T2 sequence (Q96P20 whole entry): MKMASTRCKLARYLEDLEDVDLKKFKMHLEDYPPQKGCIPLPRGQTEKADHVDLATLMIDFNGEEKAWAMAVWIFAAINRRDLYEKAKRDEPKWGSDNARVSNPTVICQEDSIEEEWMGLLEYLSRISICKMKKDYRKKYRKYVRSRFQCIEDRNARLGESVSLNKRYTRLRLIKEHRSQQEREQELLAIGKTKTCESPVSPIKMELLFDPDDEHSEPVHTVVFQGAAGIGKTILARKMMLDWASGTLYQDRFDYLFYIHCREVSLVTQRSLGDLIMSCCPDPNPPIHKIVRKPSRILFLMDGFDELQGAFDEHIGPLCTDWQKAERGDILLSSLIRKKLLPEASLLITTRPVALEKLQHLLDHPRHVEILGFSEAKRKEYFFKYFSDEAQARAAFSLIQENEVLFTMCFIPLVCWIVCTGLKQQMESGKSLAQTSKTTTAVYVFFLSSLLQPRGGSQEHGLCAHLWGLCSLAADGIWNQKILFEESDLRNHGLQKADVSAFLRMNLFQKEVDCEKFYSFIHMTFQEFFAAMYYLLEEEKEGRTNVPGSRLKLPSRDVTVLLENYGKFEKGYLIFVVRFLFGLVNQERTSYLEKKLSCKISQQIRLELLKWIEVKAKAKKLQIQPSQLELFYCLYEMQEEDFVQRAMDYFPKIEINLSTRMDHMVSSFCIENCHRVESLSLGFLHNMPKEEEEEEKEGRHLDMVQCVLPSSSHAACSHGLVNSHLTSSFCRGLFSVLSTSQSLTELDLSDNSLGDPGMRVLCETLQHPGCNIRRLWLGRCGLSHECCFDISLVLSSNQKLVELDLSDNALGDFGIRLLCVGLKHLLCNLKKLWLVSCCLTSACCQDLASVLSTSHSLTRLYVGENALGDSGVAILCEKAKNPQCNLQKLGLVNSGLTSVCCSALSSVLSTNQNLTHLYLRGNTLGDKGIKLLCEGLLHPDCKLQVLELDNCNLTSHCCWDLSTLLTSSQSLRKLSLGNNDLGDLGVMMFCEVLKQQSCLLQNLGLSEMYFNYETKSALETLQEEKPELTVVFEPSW
T1 sequence (Q12809 whole entry): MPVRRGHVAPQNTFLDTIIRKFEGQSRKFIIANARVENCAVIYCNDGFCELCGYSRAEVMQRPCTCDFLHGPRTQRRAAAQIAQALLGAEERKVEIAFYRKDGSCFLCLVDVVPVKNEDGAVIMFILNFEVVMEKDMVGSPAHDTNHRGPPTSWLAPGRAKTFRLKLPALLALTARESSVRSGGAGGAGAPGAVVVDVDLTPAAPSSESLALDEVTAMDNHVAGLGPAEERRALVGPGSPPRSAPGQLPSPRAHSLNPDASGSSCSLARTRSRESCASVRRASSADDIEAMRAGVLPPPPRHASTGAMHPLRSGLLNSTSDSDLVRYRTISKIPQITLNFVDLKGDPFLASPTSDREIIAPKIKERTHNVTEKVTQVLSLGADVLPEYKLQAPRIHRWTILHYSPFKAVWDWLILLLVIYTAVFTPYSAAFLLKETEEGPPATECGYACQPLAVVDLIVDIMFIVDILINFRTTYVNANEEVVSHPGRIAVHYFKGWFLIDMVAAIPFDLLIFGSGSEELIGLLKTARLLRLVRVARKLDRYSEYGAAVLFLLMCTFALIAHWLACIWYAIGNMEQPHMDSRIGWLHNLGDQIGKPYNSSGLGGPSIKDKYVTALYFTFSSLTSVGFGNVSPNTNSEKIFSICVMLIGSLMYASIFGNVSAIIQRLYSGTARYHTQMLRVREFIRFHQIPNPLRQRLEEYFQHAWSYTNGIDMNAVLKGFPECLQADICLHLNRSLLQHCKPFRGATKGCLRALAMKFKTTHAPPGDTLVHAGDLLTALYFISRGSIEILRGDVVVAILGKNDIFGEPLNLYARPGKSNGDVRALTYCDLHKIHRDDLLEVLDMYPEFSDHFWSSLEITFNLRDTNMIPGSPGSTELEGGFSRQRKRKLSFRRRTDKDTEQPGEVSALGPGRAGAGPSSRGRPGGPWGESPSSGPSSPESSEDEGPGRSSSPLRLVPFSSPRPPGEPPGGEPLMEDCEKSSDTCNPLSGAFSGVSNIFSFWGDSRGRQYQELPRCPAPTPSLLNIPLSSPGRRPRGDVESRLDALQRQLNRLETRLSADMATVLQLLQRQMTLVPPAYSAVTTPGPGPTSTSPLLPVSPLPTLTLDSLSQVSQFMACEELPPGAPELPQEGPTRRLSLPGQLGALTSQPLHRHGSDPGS

Structure (SMILES) | IC50 [1] [nM] | IC50 [3] [nM] | IC50 [2] [µM]
Cc1cc(C(F)(F)F)cc(O)c1C1=NN=C(N[C@H]2C[C@@](C)(O)C2)SC1 [Compound 10] | 10 to 100 | 10 to 100 | > 30
Cc1cc2c(c(O)c1C1=NN=C(N[C@H]3C[C@@](C)(O)C3)SC1)CCO2 [Compound 31] | 10 to 100 | 10 to 100 | > 30
Cc1cc2c(c(O)c1C1=NN=C(N[C@H]3C[C@@](C)(O)C3)SC1)CC2 [Compound 59] | < 10 | < 10 | > 30
Cc1cc2c(c(O)c1C1=NN=C(N[C@@H]3CCCN(C)C3)CS1)CCO2 [Compound 205] | < 10 | < 10 | 

Continued, in another order:

IC50 [1] [nM] | IC50 [3] [nM] | Structure (SMILES) | IC50 [2] [µM]
10 to 100 | 10 to 100 | Cc1cc(C(F)(F)F)cc(O)c1C1=NN=C(N[C@@H]2C[C@@H](F)CN(C)C2)SC1 [Compound 8] | 19.1
< 10 | 10 to 100 | Cc1cc2c(c(O)c1C1=NN=C(N[C@@H]3CCCN(C)C3)SC1)CCO2 [Compound 28] | 29.4
10 to 100 | 10 to 100 | Cc1cc(Cl)cc(O)c1C1=NN=C(N[C@H]2C[C@@](C)(N)C2)CS1 [Compound 206] | 
